Test results from PubChem BioAssay AID248 (DTP/NCI, 2004).
“And” between values parts separate entries of the source, which are not always exact repeats. Equal values may be shown once. Toxic doses and inconclusive results are not listed. Cut-off read from the data, not from the text of the source: active = T/C of 150% or more; inactive = T/C below 125%.

System: L1210 leukemia ip in BDF1 mice, survival T/C
Assay: NCI In Vivo Anticancer Drug Screen. Data for tumor model L1210 Leukemia (intraperitoneal) in B6D2F1 (BDF1) mice
Conditions: endpoint: mean survival time, higher = longer survival
How it was run: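 Mice bearing the transplanted tumor received compound or vehicle. Survival of the treated group was divided by that of the vehicle-treated control group to give the ratio.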

[1] = dose: 100.0 mg/kg/injection, schedule: Q01DX001 (ip), vehicle: carboxymethylcellulose (CMC)
[2] = dose: 200.0 mg/kg/injection, schedule: Q01DX001 (ip), vehicle: carboxymethylcellulose (CMC)
[3] = dose: 400.0 mg/kg/injection, schedule: Q01DX001 (ip), vehicle: carboxymethylcellulose (CMC)
[4] = dose: 100.0 mg/kg/injection, schedule: Q01DX009 (ip), vehicle: saline with Tween-80
[5] = dose: 100.0 mg/kg/injection, schedule: Q04DX002 (ip), vehicle: saline with Tween-80
[6] = dose: 200.0 mg/kg/injection, schedule: Q01DX009 (ip), vehicle: saline with Tween-80
[7] = dose: 200.0 mg/kg/injection, schedule: Q04DX002 (ip), vehicle: saline with Tween-80
[8] = dose: 400.0 mg/kg/injection, schedule: Q01DX009 (ip), vehicle: saline with Tween-80
[9] = dose: 400.0 mg/kg/injection, schedule: Q04DX002 (ip), vehicle: saline with Tween-80
[10] = dose: 100.0 mg/kg/injection, schedule: Q04DX003 (ip), vehicle: Klucel (hydroxypropylcellulose) (HPC)
[11] = dose: 200.0 mg/kg/injection, schedule: Q04DX003 (ip), vehicle: Klucel (hydroxypropylcellulose) (HPC)
[12] = dose: 400.0 mg/kg/injection, schedule: Q04DX003 (ip), vehicle: Klucel (hydroxypropylcellulose) (HPC)
[13] = dose: 100.0 mg/kg/injection, schedule: Q04DX003 (ip), vehicle: saline with Tween-80
[14] = dose: 200.0 mg/kg/injection, schedule: Q04DX003 (ip), vehicle: saline with Tween-80
[15] = dose: 400.0 mg/kg/injection, schedule: Q04DX003 (ip), vehicle: saline with Tween-80
[16] = dose: 100.0 mg/kg/injection, schedule: Q04DX002 (ip), vehicle: Klucel (hydroxypropylcellulose) (HPC)
[17] = dose: 200.0 mg/kg/injection, schedule: Q04DX002 (ip), vehicle: Klucel (hydroxypropylcellulose) (HPC)
[18] = dose: 400.0 mg/kg/injection, schedule: Q04DX002 (ip), vehicle: Klucel (hydroxypropylcellulose) (HPC)
[19] = dose: 50.0 mg/kg/injection, schedule: Q01DX001 (ip), vehicle: carboxymethylcellulose (CMC)
[20] = dose: 25.0 mg/kg/injection, schedule: Q01DX009 (ip), vehicle: saline with Tween-80
[21] = dose: 50.0 mg/kg/injection, schedule: Q01DX009 (ip), vehicle: saline with Tween-80
[22] = dose: 50.0 mg/kg/injection, schedule: Q01DX009 (ip), vehicle: saline
[23] = dose: 100.0 mg/kg/injection, schedule: Q01DX009 (ip), vehicle: saline

Measured: T/C

CC1CN(c2nc3ccccc3o2)C(C)CN1c1nc2ccccc2o1 (stereo not given)
inactive: [1] 96 % of control | [2] 94 % of control | [3] 89 % of control

Fc1ccc(NC(=S)S)cc1
inactive: dose: 6.25 mg/kg/injection, schedule: Q04DX003 (ip), vehicle: saline with Tween-80 94 % of control | dose: 12.5 mg/kg/injection, schedule: Q04DX003 (ip), vehicle: saline with Tween-80 99 % of control | dose: 25.0 mg/kg/injection, schedule: Q04DX003 (ip), vehicle: saline with Tween-80 91 % of control

O=C(/C=C/c1ccc(Cl)c(Cl)c1)C1CCC2CCCCC2C1 (stereo not given)
inactive: [4] 90 % of control | [5] 105 % of control | [6] 93 % of control | [7] 101 % of control | [8] 90 % of control | [9] 90 % of control

COc1cc2ccc(Cc3nccc4cc(OC)c(OC)cc34)cc2cc1OC
inactive: dose: 100.0 mg/kg/injection, schedule: Q01DX009 (ip), vehicle: Klucel (hydroxypropylcellulose) (HPC) 91 % of control | [10] 100 % of control | dose: 200.0 mg/kg/injection, schedule: Q01DX009 (ip), vehicle: Klucel (hydroxypropylcellulose) (HPC) 106 % of control | [11] 92 % of control | dose: 400.0 mg/kg/injection, schedule: Q01DX009 (ip), vehicle: Klucel (hydroxypropylcellulose) (HPC) 101 % of control | [12] 92 % of control

O=C(O)c1cccc(S)c1
inactive: [5] 113 % of control | [7] 113 % of control

CC(=O)N(C1=C(N(CCO)CCO)C(=O)c2ccccc2C1=O)c1ccccc1
inactive: [13] 106 % of control | [14] 103 % of control | [15] 101 % of control

CSc1nnc(-c2cccs2)s1
inactive: [10] 98 % of control

Cc1ccc(S(=O)(=O)NC(CCl)=NCc2ccccc2)cc1
inactive: [16] 96 % of control | [17] 100 % of control | [18] 114 % of control

O=P(NO)(Oc1ccccc1)Oc1ccccc1
inactive: [19] 101 % of control | [1] 95 % of control | [2] 100 % of control

Nc1c(Cl)cc2c(c1Br)Cc1ccccc1-2
inactive: [19] 107 % of control | [1] 107 % of control | [2] 117 % of control | [3] 107 % of control

O=[N+]([O-])c1ccc(/C=C/C=C/c2ccccc2)cc1
inactive: [4] 105 % of control | [6] 92 % of control | [8] 89 % of control

N/N=C1/CCN2CCCc3cccc1c32
inactive: [13] 101 % of control | [14] 96 % of control

CCCCCCCCCCCCCCCCOc1ccc(C(SC)=[N+]2CCCCC2)cc1OC
inactive: [10] 98 % of control | [11] 102 % of control | [12] 102 % of control

COc1ccc(CCN2C(=O)c3cccc4c(Br)ccc(c34)C2=O)cc1
inactive: dose: 100.0 mg/kg/injection, schedule: Q04DX002 (ip), vehicle: saline 93 % of control | dose: 200.0 mg/kg/injection, schedule: Q04DX002 (ip), vehicle: saline 93 % of control | dose: 400.0 mg/kg/injection, schedule: Q04DX002 (ip), vehicle: saline 97 % of control

COc1ccc(OC)c(/C=C/c2ccc3ccccc3[n+]2C)c1
inactive: dose: 5.0 mg/kg/injection, schedule: Q04DX003 (ip), vehicle: saline with Tween-80 110 % of control | dose: 10.0 mg/kg/injection, schedule: Q04DX003 (ip), vehicle: saline with Tween-80 111 % of control | dose: 20.0 mg/kg/injection, schedule: Q04DX003 (ip), vehicle: saline with Tween-80 117 % of control

CCCCC(O)(CCCC)C(CC)CC
inactive: [13] 108 % of control | [14] 99 % of control | [15] 101 % of control

O=C(O)CCn1c(=O)n(CCC(=O)O)c(=O)n(CCC(=O)O)c1=O
inactive: [16] 100 % of control | [17] 93 % of control | [18] 86 % of control

ClC1=NC(Cl)C(Cl)=N/C1=N\c1ncn[nH]1 (stereo not given)
inactive: dose: 6.25 mg/kg/injection, schedule: Q01DX009 (ip), vehicle: saline with Tween-80 103 % of control | dose: 12.5 mg/kg/injection, schedule: Q01DX009 (ip), vehicle: saline with Tween-80 97 % of control | [20] 105 % of control | dose: 31.25 mg/kg/injection, schedule: Q01DX009 (ip), vehicle: saline with Tween-80 87 % of control

C=C(CCCC)c1ccccc1
inactive: [21] 102 % of control | [4] 91 % of control | [6] 94 % of control

O=S(=O)(O)C1(O)CCCCC1
inactive: [22] 99 % of control | [23] 93 % of control | dose: 100.0 mg/kg/injection, schedule: Q04DX003 (ip), vehicle: saline 102 % of control | dose: 200.0 mg/kg/injection, schedule: Q01DX009 (ip), vehicle: saline 103 % of control | dose: 200.0 mg/kg/injection, schedule: Q04DX003 (ip), vehicle: saline 100 % of control | dose: 400.0 mg/kg/injection, schedule: Q01DX009 (ip), vehicle: saline 113 % of control | dose: 400.0 mg/kg/injection, schedule: Q04DX003 (ip), vehicle: saline 96 % of control

O=C(Cc1ccccc1)Nc1ccc([N+](=O)[O-])cc1Cl
inactive: [20] 103 % of control | [21] 103 % of control | [4] 94 % of control and 100 % of control | [5] 104 % of control | dose: 150.0 mg/kg/injection, schedule: Q01DX009 (ip), vehicle: saline with Tween-80 92 % of control | [7] 101 % of control | dose: 225.0 mg/kg/injection, schedule: Q01DX009 (ip), vehicle: saline with Tween-80 97 % of control | dose: 335.0 mg/kg/injection, schedule: Q01DX009 (ip), vehicle: saline with Tween-80 103 % of control | [9] 96 % of control

CCOC(=O)c1c(N)cc(=O)[nH]c1O
inactive: dose: 75.0 mg/kg/injection, schedule: Q01DX001 (ip), vehicle: saline 101 % of control | dose: 150.0 mg/kg/injection, schedule: Q01DX001 (ip), vehicle: saline 98 % of control | dose: 300.0 mg/kg/injection, schedule: Q01DX001 (ip), vehicle: saline 95 % of control

CCN1CCc2ccccc2C1c1ccccc1 (stereo not given)
inactive: dose: 25.0 mg/kg/injection, schedule: Q01DX009 (ip), vehicle: saline 104 % of control | [22] 103 % of control | [23] 106 % of control and 115 % of control

CCCCCCCCCCCCCCCCCCNC(=O)Nc1cccc2ccccc12
inactive: dose: 100.0 mg/kg/injection, schedule: Q01DX009 (ip), vehicle: carboxymethylcellulose (CMC) 87 % of control | [16] 101 % of control | dose: 100.0 mg/kg/injection, schedule: Q04DX002 (ip), vehicle: carboxymethylcellulose (CMC) 87 % of control | dose: 100.0 mg/kg/injection, schedule: Q04DX003 (ip), vehicle: carboxymethylcellulose (CMC) 106 % of control | dose: 200.0 mg/kg/injection, schedule: Q01DX009 (ip), vehicle: carboxymethylcellulose (CMC) 87 % of control | [17] 101 % of control | dose: 200.0 mg/kg/injection, schedule: Q04DX002 (ip), vehicle: carboxymethylcellulose (CMC) 93 % of control and 95 % of control | dose: 200.0 mg/kg/injection, schedule: Q04DX003 (ip), vehicle: carboxymethylcellulose (CMC) 96 % of control | dose: 400.0 mg/kg/injection, schedule: Q01DX009 (ip), vehicle: carboxymethylcellulose (CMC) 94 % of control and 97 % of control | dose: 400.0 mg/kg/injection, schedule: Q04DX002 (ip), vehicle: carboxymethylcellulose (CMC) 93 % of control and 88 % of control | dose: 400.0 mg/kg/injection, schedule: Q04DX003 (ip), vehicle: carboxymethylcellulose (CMC) 90 % of control

Nc1nc(N)c(-c2ccc(Cl)cc2)c(C=O)n1
inactive: [1] 108 % of control | [2] 87 % of control | [3] 108 % of control

COc1cc(C=Nc2cc(Br)c(O)c(Br)c2)ccc1N(CCCCl)CCCCl
inactive: [10] 97 % of control | [11] 100 % of control | [12] 102 % of control
